Source: patent publication US6395772B1, “Method for blocking endothelial cell-leukocyte attachment by inhibiting expression of adhesion molecules on the vascular endothelium for therapeutic applications” (National Institute of Immunology, priority 1996, dated 2002)
Entries after “also recorded” stand apart in the source; their conditions may differ.

Legend:
ICAM-1 = ICAM-1 expression on vascular endothelium of LPS-challenged mice (immunocytochemical localization); format: in vivo, BALB/C mice; settings: berberine intraperitoneally 24 hours before 500 ug LPS; sacrificed 6 hours after LPS
Description: FIG. 3: Photomicrograph of liver from mice challenged with endotoxin (LPS 500 ug). […] (Immunocytochemical localization using anti-ICAM-1 antibody on frozen tissue).
FIG. 4: Photomicrograph of liver from mice treated with berberine (10 ug/kg) followed 24 hours later by endotoxin (LPS 500 ug). […] (Immunocytochemical localization using anti-ICAM-1 antibody frozen tissue).
BALB/C mice were treated with berberine (1, 5, 10 or 20 ug/kg body weight) intraperitoneally and challenged 24 hours later with 500 ug of endotoxin (lipopolysaccharide: LPS); controls without berberine treatment were also given LPS challenge. Animals were sacrificed 6 hours after the LPS challenge and various organs (liver, kidney, lungs) were removed and immediately frozen in liquid nitrogen. Frozen section of these organs were subjected to immunocytochemical localization for ICAM 1 antibodies.

[1] = test system: ICAM-1 on endothelial cell line (send. 1); test: TNF-α induced ICAM-1 expression on endothelial cell line (send. 1), flowcytometric analysis; format: cell-based
Description: FIG. 5: Effect of berberine pretreatment on expression of TNF-α induced ICAM-1 expression on endothelial cell line (send. 1), in vitro. […] (Flowcytometric analysis using anti-ICAM 1 antibody—FITC conjugate). The black line represents background level of ICAM expression, the red line represents induced level of ICAM following TNF stimulation and the green line represents TNF-α induced ICAM-1 expression after treatment for different duration.
FIG. 6: Effect of berberine pretreatment (dose response) on expression of TNF-α induced ICAM-1 expression on endothelial cell line (send. 1), in vitro. […] (Flowcytometric analysis using anti-ICAM 1 antibody—FITC conjugate). The black line represents background level of ICAM-1 expression, the red line represents induced level of ICAM following TNF stimulation and the green line represents the TNF-α induced ICAM induced ICAM expression after treatment with different doses of berberine.
Shifting of this curve to the left indicates the lower amount of expression of ICAM-1.
Effect of berberine for various duration ranging from 1, 6, 12 and 24 hours on the expression of ICAM-1 on the endothelial cell line (send. 1) in response to a combination of recombinant TNF-α and IFN-γ was analyzed using flowcytometer after staining with FITC labeled anti-CD 54 (ICAM-1) antibody.

[2] = test system: attachment of neutrophils to endothelial lining of the glomerular capillaries; test: Neutrophil attachment to endothelial lining in kidney of endotoxin-challenged mice (electron microscopy); format: in vivo, BALB/C mice
Description: FIG. 1: Electron micrograph of kidney from a mouse challenged with endotoxin (LPS: 500 ug)) showing attachment of neutrophils with endothelial cells of glomerular capillary. Degenerative changes in surrounding tissue are shown.
FIG. 2: Electron micrograph of kidney from a mouse treated with a dose of berberine of 10 mg/kg followed 24 hours later by endotoxin (LPS 500 ug).
BALB/C mice were treated with berberine (1, 5, 10 or 20 ug/kg body weight) intraperitoneally and challenged 24 hours later with lethal dose of endotoxin. Kidneys were removed after 3, 6 and 12 hours after endotoxin challenge and the tissue samples was fixed and processed for electron microscopy.

B cells, T cells = settings: cited from earlier work
[3] = test system: TNF sensitive mouse fibroblast L-929 cell line; test: TNF-α mediated cytotoxicity on TNF-sensitive L-929 fibroblast cell line (MTT assay); format: cell-based
Description: FIG. 7: Effect of berberine on TNF-α mediated cytotoxicity on TNF sensitive mouse fibroblast L-929 cell line.
Effect of Berberine on TNF-α mediated cytotoxicity was evaluated using TNF-sensitive L-929 fibroblast cell line. L-929 cells were plated at a concentration of 5×10^4 cells/well in a 96-well flat bottom plate in a volume of 100 μl. The cells were incubated at 37° C. for 16-18 hrs. Different concentrations of TNF-α, with and without different doses of berberine, were added to the cultures. The cells were then incubated for additional 15 hrs and cytotoxity was measured by MTT assay.

With `COc1ccc2cc3[n+](cc2c1OC)CCc1cc2c(cc1-3)OCO2` [berberine] the “expression of ICAM-1 on vascular endothelium (liver, kidney, lungs)” value (ICAM-1) was “lack of expression of ICAM-1 on vascular endothelium; also recorded: inhibited expression of ICAM 1 on the endothelial lining of all organs”, the “maximum inhibition of ICAM-1 expression” value ([1]; 24 hours of treatment at 100 μg/ml) was 24 hour pretreatment shows the maximum inhibition of ICAM-1 expression and Treatment with 100 ug/ml berberine shows the maximum inhibition of ICAM-1 expression and maximum inhibition was seen at 24 hours of treatment at 100 μg/ml and the “dose dependence of inhibition of ICAM-1 expression” value ([1]; dose response, FIG. 6) was “dose dependent”. For the same compound, the “inhibition of ICAM-1 expression on endothelial cells” value ([1]; recombinant TNF-α and IFN-γ stimulation, as early as 6 hours of treatment) was “inhibited the expression of ICAM-1 on endothelial cells”, the “glomerular morphology / surrounding tissue” value ([2]; berberine dose of 10-20 mg/kg, endotoxin challenge 24 hours later) was “surrounding tissue appears normal; also recorded: glomerular morphology was normal” and the “attachment of neutrophils to endothelial lining of glomerular capillaries” value ([2]; berberine intraperitoneally 24 hours before lethal endotoxin (LPS 500 ug), kidneys 3, 6 and 12 hours after challenge) was “appear free without attachment to endothelial lining; also recorded: remarkably inhibited the attachment of neutrophils to endothelial lining of the glomerular capillaries”. The “antibody production by B cells” value (B cells, T cells) was “inhibits antibody production by B cells”, the “propagation of T cells” value (B cells, T cells) was “no effect on propagation of T cells” and the TNF mediated cytotoxity ([3]; berberine 100 μg/ml, TNF 100 pg/ml alone showed 66% cytotoxity, 15 hrs incubation) was 27%. For the same compound, the “protection against TNF mediated killing” value ([3]; different doses of berberine with TNF-α, 15 hrs) was “dose dependent inhibition of cytotoxic effect; also recorded: dose dependent protection”.
